System: moderate-to-severe chronic spontaneous urticaria (CSU)
Test: Phase 2 CSU study: hives severity score over 7 days (HSS7)
Assay type: in vivo, human
Parameters: key to HSS7 Change from baseline, Median / HSS7, Median / HSS7, Max / HSS7 Change from baseline, Q1 / HSS7 Change from baseline, Q3 / HSS7 Change from baseline, Max: 7-day sum of daily hive scores, each 0 = none to 3 = >50 hives
Text: The study comprises a 12 week, randomized, double-blind, placebo-controlled, multi-center, dose-ranging efficacy and safety phase, followed by a 40 week open label extension (OLE) phase (see FIG. 1).
The study consists of three phases and an optional OLE phase.
The UAS is a validated PRO measure. The daily UAS is the sum of the daily Hive Severity Score (HSS, ranging from 0=None to 3=more than 50 hives) and the daily Itch Severity Score (ISS, ranging from 0=None to 3=intense), the 2 key urticaria signs and symptoms which are wheals and itch. The daily UAS scores range from 0 to 6 point/day. Daily UAS scores are summed over 7-day period to create the UAS7, ranging from 0 to 42, and are composed of the HSS7 and ISS7 components. […] Patients were to complete the UAS using the e-diary. The e-diary was to be used once daily on the same time of each day recording of participant's answers to the urticaria activity score over 7 days (UAS7) questionnaire. For participants who entered the OLE phase, their answers to the UAS7 questionnaire were also to be collected from Week 20 to Week24 and from Week 48 to Week 52.
The following secondary endpoints were to be analyzed using the same approach as for the primary endpoint: • Change from baseline in UAS7 at Week 4 • Change from baseline in UAS7 at Week 12 (for US and US reference countries) • Change from baseline in ISS7 at Week 12 (except US and US reference countries) • Change from baseline in HSS7 at Week 12

[1] = Week 7, 400 mg BID, Omalizumab-Naïve Population
[2] = Week 7, 400 mg BID, Patients with Prior Omalizumab Use
[3] = Week 7, 400 mg QPM, Omalizumab-Naïve Population
[4] = Week 7, 400 mg QPM, Patients with Prior Omalizumab Use
[5] = Week 7, 400 mg TID, Omalizumab-Naïve Population
[6] = Week 7, 400 mg TID, Patients with Prior Omalizumab Use
[7] = Week 8, 400 mg BID, Omalizumab-Naïve Population
[8] = Week 8, 400 mg BID, Patients with Prior Omalizumab Use
[9] = Week 8, 400 mg QPM, Omalizumab-Naïve Population
[10] = Week 8, 400 mg QPM, Patients with Prior Omalizumab Use
[11] = Week 8, 400 mg TID, Omalizumab-Naïve Population
[12] = Week 8, 400 mg TID, Patients with Prior Omalizumab Use
[13] = Week 9, 400 mg BID, Omalizumab-Naïve Population
[14] = Week 9, 400 mg BID, Patients with Prior Omalizumab Use
[15] = Week 9, 400 mg QPM, Omalizumab-Naïve Population
[16] = Week 9, 400 mg QPM, Patients with Prior Omalizumab Use
[17] = Week 9, 400 mg TID, Omalizumab-Naïve Population
[18] = Week 9, 400 mg TID, Patients with Prior Omalizumab Use

SMILES: CC(C)(C=C(C#N)C(=O)N1CCC[C@@H](n2nc(-c3ccc(Oc4ccccc4)cc3F)c3c(N)ncnc32)C1)N1CCN(C2COC2)CC1 [rilzabrutinib, (R)-2-[3-[4-amino-3-(2-fluoro-4-phenoxy-phenyl)pyrazolo[3,4-d]pyrimidin-1-yl]piperidine-1-carbonyl]-4-methyl-4-[4-(oxetan-3-yl)piperazin-1-yl]pent-2-enenitrile]
- HSS7, Mean (SD) [1]: 7.34 (6.12)
- HSS7, Median [1]: 7.00
- HSS7 Change from baseline, Mean (SD) [1]: −6.75 (5.85)
- HSS7 Change from baseline, Median [1]: −7.00
- HSS7 Percent change from baseline, Mean (SD) [1]: −48.07 (38.31) %
- HSS7 Percent change from baseline, Median [1]: −50.00%
- HSS7, Mean (SD) [2]: 4.80 (7.46)
- HSS7, Median [2]: 0.00
- HSS7 Change from baseline, Mean (SD) [2]: −10.00 (9.67)
- HSS7 Change from baseline, Median [2]: −12.00
- HSS7 Percent change from baseline, Median [2]: −100.00%
- HSS7, Mean (SD) [3]: 10.43 (5.27)
- HSS7, Median [3]: 8.40
- HSS7 Change from baseline, Mean (SD) [3]: −4.82 (5.35)
- HSS7 Change from baseline, Median [3]: −4.00
- HSS7 Percent change from baseline, Mean (SD) [3]: −29.76 (31.10) %
- HSS7 Percent change from baseline, Median [3]: −35.71%
- HSS7, Mean (SD) [4]: 9.00 (NC)
- HSS7, Median [4]: 9.00
- HSS7 Change from baseline, Mean (SD) [4]: −11.00 (NC)
- HSS7 Change from baseline, Median [4]: −11.00
- HSS7 Percent change from baseline, Mean (SD) [4]: −55.00 (NC) %
- HSS7 Percent change from baseline, Median [4]: −55.00%
- HSS7, Mean (SD) [5]: 6.40 (4.54)
- HSS7, Median [5]: 5.92
- HSS7 Change from baseline, Mean (SD) [5]: −7.60 (5.60)
- HSS7 Change from baseline, Median [5]: −6.58
- HSS7 Percent change from baseline, Mean (SD) [5]: −52.36 (32.23) %
- HSS7 Percent change from baseline, Median [5]: −50.69%
- HSS7, Mean (SD) [6]: 5.11 (4.08)
- HSS7, Median [6]: 4.33
- HSS7 Change from baseline, Mean (SD) [6]: −10.92 (7.20)
- HSS7 Change from baseline, Median [6]: −9.50
- HSS7 Percent change from baseline, Mean (SD) [6]: −63.38 (24.01) %
- HSS7 Percent change from baseline, Median [6]: −54.41%
- HSS7, Mean (SD) [7]: 6.66 (6.70)
- HSS7, Median [7]: 5.00
- HSS7 Change from baseline, Mean (SD) [7]: −7.49 (6.10)
- HSS7 Change from baseline, Median [7]: −7.00
- HSS7 Percent change from baseline, Mean (SD) [7]: −54.71 (40.69) %
- HSS7 Percent change from baseline, Median [7]: −74.07%
- HSS7, Mean (SD) [8]: 4.80 (7.46)
- HSS7, Median [8]: 0.00
- HSS7 Change from baseline, Mean (SD) [8]: −10.00 (9.67)
- HSS7 Change from baseline, Median [8]: −12.00
- HSS7 Percent change from baseline, Median [8]: −100.00%
- HSS7, Median [9]: 9.00
- HSS7 Change from baseline, Mean (SD) [9]: −4.56 (5.35)
- HSS7 Change from baseline, Median [9]: −4.00
- HSS7 Percent change from baseline, Mean (SD) [9]: −29.79 (35.34) %
- HSS7 Percent change from baseline, Median [9]: −28.57%
- HSS7, Mean (SD) [10]: 9.00 (NC)
- HSS7, Median [10]: 9.00
- HSS7 Change from baseline, Mean (SD) [10]: −11.00 (NC)
- HSS7 Change from baseline, Median [10]: −11.00
- HSS7 Percent change from baseline, Mean (SD) [10]: −55.00 (NC) %
- HSS7 Percent change from baseline, Median [10]: −55.00%
- HSS7, Mean (SD) [11]: 6.12 (4.80)
- HSS7, Median [11]: 6.00
- HSS7 Change from baseline, Mean (SD) [11]: −7.88 (5.18)
- HSS7 Change from baseline, Median [11]: −7.50
- HSS7 Percent change from baseline, Mean (SD) [11]: −56.04 (32.39) %
- HSS7 Percent change from baseline, Median [11]: −56.35%
- HSS7, Mean (SD) [12]: 3.17 (4.45)
- HSS7, Median [12]: 1.50
- HSS7 Change from baseline, Mean (SD) [12]: −12.86 (6.28)
- HSS7 Percent change from baseline, Mean (SD) [12]: −80.91 (20.45) %
- HSS7 Percent change from baseline, Median [12]: −86.73%
- HSS7, Mean (SD) [13]: 7.01 (7.58)
- HSS7, Median [13]: 3.50
- HSS7 Change from baseline, Mean (SD) [13]: −6.95 (6.00)
- HSS7 Change from baseline, Median [13]: 7.00
- HSS7 Percent change from baseline, Mean (SD) [13]: −53.79 (43.28) %
- HSS7 Percent change from baseline, Median [13]: −68.18%
- HSS7, Mean (SD) [14]: 4.80 (7.46)
- HSS7, Median [14]: 0.00
- HSS7 Change from baseline, Mean (SD) [14]: −10.00 (9.67)
- HSS7 Change from baseline, Median [14]: −12.00
- HSS7 Percent change from baseline, Median [14]: −100.00%
- HSS7, Mean (SD) [15]: 9.82 (5.59)
- HSS7, Median [15]: 9.20
- HSS7 Change from baseline, Mean (SD) [15]: −5.33 (5.35)
- HSS7 Change from baseline, Median [15]: 4.92
- HSS7 Percent change from baseline, Mean (SD) [15]: −34.46 (32.68) %
- HSS7 Percent change from baseline, Median [15]: −33.59%
- HSS7, Mean (SD) [16]: 8.00 (NC)
- HSS7, Median [16]: 8.00
- HSS7 Change from baseline, Mean (SD) [16]: −12.00 (NC)
- HSS7 Change from baseline, Median [16]: −12.00
- HSS7 Percent change from baseline, Mean (SD) [16]: −60.00 (NC) %
- HSS7 Percent change from baseline, Median [16]: −60.00%
- HSS7, Mean (SD) [17]: 5.88 (4.98)
- HSS7, Median [17]: 6.00
- HSS7 Change from baseline, Mean (SD) [17]: −8.19 (5.87)
- HSS7 Change from baseline, Median [17]: −8.00
- HSS7 Percent change from baseline, Mean (SD) [17]: −55.85 (38.63) %
- HSS7 Percent change from baseline, Median [17]: −57.14%
- HSS7, Mean (SD) [18]: 3.25 (4.37)
- HSS7, Median [18]: 2.00
- HSS7 Change from baseline, Mean (SD) [18]: −12.78 (6.34)
- HSS7 Change from baseline, Median [18]: −12.00
- HSS7 Percent change from baseline, Mean (SD) [18]: −80.12 (19.92) %
- HSS7 Percent change from baseline, Median [18]: −86.97%
- HSS7, Mean (SD) (Week 10, 400 mg BID, Omalizumab-Naïve Population): 7.05 (7.27)
